Measured values published in patent US8883718B2, “Treating cancer” (Theryte Limited, priority 2008, dated 2014).
Entries after “also recorded” stand apart in the source; their conditions may differ. Where a SMILES comes first, the peptide text is derived from it.

Assays:
Assay type in all cases: cell-based
[1] = tested on: human cancer cells; assay: clonogenic assays of human cancer cells exposed to PRGPRP motif in cyclic amphiphilic cassettes; conditions: FIG. 6i
Procedure: FIGS. 6(h) and (i) show clonogenic assays of human cancer cells exposed to the PRGPRP (SEQ ID NO: 2) motif in cyclic amphiphlic cassettes. THR53 (SEQ ID NO: 9, cyc-[[…]]); THR53C (SEQ ID NO: 23, cyc-[[…]], a control peptide); THR54 (SEQ ID NO: 10, cyc-[[…]]); THR79 (SEQ ID NO: 11, cyc-[PRGPRPvalklalklal]).
(§1) The first experiments were carried out on cyc-[[…]] (THR 53, (SEQ ID NO: 9)), see FIG. 4. Whilst the 96 well assays described in Example 3 are suitable for initial screening of small amounts of peptide material the long incubation periods in dense culture do themselves compromise cell viability to some extent. […] In clonogenic assays, (previously described by Warenius et al Br J Cancer (2000) 83(8), 1048-1059) single cell suspensions of 100 cells are plated in plentiful volumes of 2 ml of Ham's F12 tissue culture medium supplemented with 10% FCS and incubated for 15, 20 or 25 days. A high percentage of the plated cells (40-60% in the case of H460) go through repeated doublings to yield colonies of 200 or more cells which can be easily visualized by the naked eye and counted under a low power lens when stained by giemsa stain.
The effectiveness of cyclic peptides comprising amphiphilic sequences is further illustrated in FIGS. 6h and 6i, showing the results of a clonogenic assay using the peptides THR53 cyc-[[…]] (SEQ ID NO: 9); THR53C, cyc-[[…]] […]

[2] = tested on: H460 human non-small cell lung cancer cells; assay: clonogenic assay on H460 cells
Procedure: as §1
The efficacy of THR53 was compared to Ac-PRGPRP-NH2 (SEQ ID NO: 2) using a clonogenic assay.

[3] = tested on: normal diploid human keratinocytes; assay: normal keratinocyte cultures exposed to THR53; conditions: 200 μM
Procedure: FIGS. 7(g), (h), (i,) and (j) show established cultures of H460 human non-small cell lung cancer cells (i, j) and normal diploid human keratinocytes (g, h) in the presence and absence of THR53. 10^4 tumor or keratinocyte cells were plated in 2.5 cm diameter tissue culture wells and 5 days later vehicle (g, i) or 200 μM THR53 (SEQ ID NO: 9) (h, j) were added. Further incubation was carried out for 7 days.
(§2) In a clinical context this might provide a biomarker of therapeutic efficacy. […] Such a homogeneous therapeutic response is in marked contrast to the wide range of variability in dose response of different cancer cell lines seen with conventional chemotherapeutic agents^24. Cancer cells both underwent successful mitosis and died (FIG. 3f) or died in interphase (FIG. 7d). […] MRC-hTERT fibroblasts (FIG. 7c) and short term cultures of normal diploid human keratinocytes (FIG. 3h) were not killed by 200 μM THR53.

[4] = tested on: MRC-hTERT immortalized normal human fibroblasts; assay: MRC-hTERT fibroblasts exposed to THR53; conditions: 200 μM
Procedure: FIGS. 7(c), (d) and (e) show time lapse photomicrographs of H460 human non-small cell lung cancer cells and MRC-hTERT immortalized normal human fibroblasts growing in tissue culture following exposure to 200 μM THR53 (SEQ ID NO: 9) (d, e) and untreated control H460 cells (c). Magnification ×10.
as §2

[5] = tested on: Eleven human cancer cell lines covering a wide range of histologies; assay: eleven human cancer cell lines exposed to THR53 (morphology and clonogenic assays); conditions: 200 μM
Procedure: as §2

Molecule | arginine-related structure function relationship in cyclic amphiphilic compounds (control peptide) [1] | lethality on H460 non-small cell lung cancer cells ([2]; 100 uM, no colonies visible) [%] | H460 cell survival in clonogenic assay ([2]; drug concentrations 10 to 100 μM) | killing of normal diploid human keratinocytes in short term culture [3] | killing of MRC-hTERT fibroblasts [4] | mode of cancer cell death [5] | response / lethality in clonogenic assays ([5]; 15 days after exposure, eleven human cancer cell lines)
cyc-[FPPRRPGPVKLALKLALK] (cyclic; Control peptide; /note=“cyclic peptide”) [THR53C, a control peptide] | structure function relationship was retained | – | – | – | – | – | –
CC(C)C[C@@H]1NC(=O)[C@H](C)NC(=O)[C@H](CC(C)C)NC(=O)[C@H](CCCCN)NC(=O)[C@H](C(C)C)NC(=O)[C@@H]2CCCN2C(=O)[C@H](CCCNC(=N)N)NC(=O)[C@@H]2CCCN2C(=O)CNC(=O)[C@H](CCCNC(=N)N)NC(=O)[C@@H]2CCCN2C(=O)[C@@H]2CCCN2C(=O)[C@H](Cc2ccccc2)NC(=O)[C@H](CCCCN)NC(=O)[C@H](CC(C)C)NC(=O)[C@H](C)NC(=O)[C@H](CC(C)C)NC(=O)[C@H](CCCCN)NC1=O [THR53] (cyclo(ALKFPPRGPRPVKLALKL)) | – | 100 | significantly decreased | not killed | not killed | no features of apoptosis | complete lethality; also recorded: complete response
